# Results: patent US20150216870A1, “Combination of PI3K Inhibitor and C-Met Inhibitor” (Novartis AG, priority 2012, published 2015)
# What was measured:
# LN-229 = assay: CellTiter-Glo cell viability dose matrix in LN-229 glioblastoma cells; format: cell-based, human; conditions: LN229 (PTEN wildtype, HGF low)
# Procedure: The PI3K inhibitor COMPOUND C and the c-MET receptor tyrosine kinase inhibitor 2-fluoro-N-methyl-4-[7-quinolin-6-yl-methyl)-imidazo[1,2-b][1,2,4]triazin-2yl]benzamide are evaluated in combination in glioblastoma tumor models. COMPOUND C (10 mM) and 2-fluoro-N-methyl-4-[7-quinolin-6-yl-methyl)-imidazo[1,2-b][1,2,4]triazin-2yl]benzamide (10 mM) are dissolved in DMSO, and are stored in aliquots at −20° C.
# Human Glioblastoma cell lines, U-87 MG (PTEN mutant and HGF expressing line), H4 (PTEN mutant and HGF expressing line), A172 (PTEN mutant line with low HGF expression level) and LN-229 (PTEN wildtype and HGF low) are purchased from American Type Cell Collection and are maintained in a humidified incubator at 37° C. in 5% CO2 in recommended media. All four cell lines express detected MET at the mRNA level.
# The cells are passaged twice a week and the medium is changed every 2 to 3 days. […]
# Cell viability is determined by measuring cellular ATP content using the CellTiter-Glo® (CTG) luminescent cell viability assay (Promega). […] An equal volume of the CTG reagents is added to each well at the end of the compound treatment and luminescence is recorded on an Envision plate reader (Perkin Elmer). Reduced and enhanced luminescent signal values (responses) are calculated relative to untreated (control) cells. […]
# [1] = test system: U-87 MG human glioblastoma xenograft; assay: U-87 MG xenograft tumor growth inhibition and tumor growth delay; format: in vivo, nude mice; conditions: for T/C or T/T0: D13; for Median TTE: endpoint 2000 mm3; for Regress.: PR: number of animals
# Procedure: In this experiment, the U-87 MG human glioblastoma xenograft model is used to assess the anti-tumor efficacy of the PI3K inhibitor COMPOUND C and c-Met inhibitor 2-fluoro-N-methyl-4-[7-quinolin-6-yl-methyl)-imidazo[1,2-b][1,2,4]triazin-2yl]benzamide as single agents or in combination. U-87 MG tumor cells obtained from the National Cancer Institute are reported to be homozygous for likely oncogenic variants of CDKN2A, CDKN2C, CDKN2a, and PTEN; no mutations are detected in MET, PIK3CA, or 58 other genes that are frequently altered in neoplastic cells; and HGF expressing.
# Mice are treated daily for 21 days with 17.7 and 35.3 mg/kg of the c-Met inhibitor and 32.7 mg/kg COMPOUND C monotherapies, and with the c-Met inhibitor/COMPOUND C dual therapy at 17.7:32.7. An c-Met inhibitor/COMPOUND C combination at the 58.8:5.4 mg/kg dose ratio was included in the study. The control mice received both vehicles, and a standard preclinical temozolomide regimen monitored tumor model performance. The oral treatments began on Day 1 (D1) in nude mice with established subcutaneous tumors. Each animal was euthanized when its tumor reached the predetermined 2000 mm3 endpoint volume, or on D60, whichever came first. The study was terminated on D51. […] Overall efficacy was determined from the times required for tumors to progress to the volume endpoint, and from D51 survival and regression rates. This report describes the methods and results of the U87MG-e326 tumor growth delay experiment.
# The animals are fed ad libitum water (reverse osmosis, 1 ppm CI) and NIH 31 Modified and Irradiated Lab Diet® consisting of 18.0% crude protein, 5.0% crude fat, and 5.0% crude fiber. The mice are housed on irradiated Enrich-O'cobs™ Laboratory Animal Bedding in static microisolators on a 12-hour light cycle at 20-22° C. (68-72° F.) and 40-60% humidity.
# The U-87 MG tumor line is obtained from the American Type Culture Collection and maintained by serial engraftment in nude mice. A tumor fragment (1 mm^3) is implanted subcutaneously into the right flank of each test mouse. Tumors are calipered in two dimensions to monitor growth as their mean volume approached the desired 100-150 mm^3 range. Tumor size, in mm^3, was calculated from: Tumor Volume=(width^2×length)/2, where width and length (in mm) are measurements of the tumor. Tumor weight can be estimated with the assumption that 1 mg is equivalent to 1 mm^3 of tumor volume. Fourteen days after tumor cell implantation, on D1 of the study, mice with individual tumor volumes of 63-196 mm^3 are sorted into seven groups, with group mean tumor volumes of 122-127 mm^3.
# The c-Met inhibitor 2-fluoro-N-methyl-4-[7-quinolin-6-yl-methyl)-imidazo[1,2-b][1,2,4]triazin-2yl]benzamide (di-HCl salt, 84.98% free base) is stored at 4° C. and is added to deionized water at 2× the final concentration and sonicated until dissolved. An equal volume of 0.5% methylcellulose and 0.1% Tween® 80 in deionized water is added to provide a 5.884 mg/mL dosing solution in 0.25% methylcellulose and 0.05% Tween® 80 in deionized water (Vehicle 1). Portions of this solution are diluted with Vehicle 1 to provide 3.53 and 1.765 mg/mL dosing solutions.
# COMPOUND C (HCl salt, 91.85% free base) is stored at −20° C. and is added to 1% Tween® 80 in deionized water and sonicated to obtain a uniform suspension at 2× the final concentration. […] The 0.544 mg/mL dosing suspension is obtained by diluting a portion of the first suspension with Vehicle 2.
# [2] = c-Met inhibitor 17.7 mg/kg (15 mg/kg free base) p.o. qd x21
# [3] = c-Met inhibitor 35.3 mg/kg (30 mg/kg free base) p.o. qd x21
smiles,measurement,setting,value
CNC(=O)c1ccc(-c2cnc3ncc(Cc4ccc5ncccc5c4)n3n2)cc1F [c-Met inhibitor],anti-proliferative activity (single agent),LN-229,completely inactive
same,increase of median TTE,[1]; c-Met inhibitor 15 mg/kg free base p.o. qd x21,21.4 days
same,% TGD,[1]; [2],183%
same,T/C or T/T0,[1]; [2],5%
same,T/C or T/T0,"[1]; c-Met inhibitor 17.7 mg/kg (15 mg/kg free base) p.o. qd x21, listed as c-Met inh.",5%
same,Median TTE,[1]; [2],33.1 days
same,Regress.: PR,[1]; c-Met inhibitor 17.7 mg/kg p.o. qd x21,4 PR
same,increase of median TTE,[1]; c-Met inhibitor 30 mg/kg free base p.o. qd x21,23.4 days
same,% TGD,[1]; [3],200%
same,T/C or T/T0,[1]; [3],1%
same,T/C or T/T0,"[1]; c-Met inhibitor 35.3 mg/kg (30 mg/kg free base) p.o. qd x21, listed as c-Met inh.",1%
same,Median TTE,[1]; [3],35.1 days
same,Regress.: PR,[1]; c-Met inhibitor 35.3 mg/kg p.o. qd x21,4 PR
